Substitutions are numbered along the chain they refer to.
Experiments:
Format in all cases: cell-based
[1] = molecular target: T1, FZD6 (HiBiT-FZD6; FZD6-Nluc) (Homo sapiens, UniProt O60353); experiment: NanoBiT/BRET saturation binding in live cells; conditions: HBSS, 90 min, 37 °C; cell-surface receptor; upper 7TM site; labelled compound; error SD
T1 construct: full-length receptor; expressed in deltaSMO HEK293A cells; UniProt id given for the homology model
T1 sequence (O60353 19-706): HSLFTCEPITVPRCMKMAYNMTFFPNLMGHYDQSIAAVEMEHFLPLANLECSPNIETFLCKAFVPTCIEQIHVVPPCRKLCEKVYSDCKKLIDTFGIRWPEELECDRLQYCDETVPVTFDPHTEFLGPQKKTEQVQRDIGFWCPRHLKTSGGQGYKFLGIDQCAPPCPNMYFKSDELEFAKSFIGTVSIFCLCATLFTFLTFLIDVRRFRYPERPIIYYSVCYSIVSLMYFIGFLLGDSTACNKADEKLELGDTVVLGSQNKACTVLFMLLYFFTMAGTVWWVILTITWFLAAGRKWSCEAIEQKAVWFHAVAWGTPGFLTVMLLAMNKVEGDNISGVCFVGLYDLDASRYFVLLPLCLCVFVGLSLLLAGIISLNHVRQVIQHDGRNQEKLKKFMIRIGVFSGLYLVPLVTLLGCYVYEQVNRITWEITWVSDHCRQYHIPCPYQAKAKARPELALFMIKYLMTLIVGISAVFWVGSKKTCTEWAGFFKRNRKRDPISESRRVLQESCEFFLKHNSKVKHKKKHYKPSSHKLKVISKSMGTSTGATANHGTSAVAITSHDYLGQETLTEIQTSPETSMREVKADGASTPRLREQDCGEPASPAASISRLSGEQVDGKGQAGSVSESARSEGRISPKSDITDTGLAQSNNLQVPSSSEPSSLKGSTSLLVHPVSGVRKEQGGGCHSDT

[2] = molecular target: T2, SMO (HiBiT-SMO; SMO-Nluc) (Mus musculus, UniProt P56726, F466P); experiment: NanoBiT/BRET saturation binding in live cells; conditions: HBSS, 90 min, 37 °C; cell-surface receptor; labelled compound; error SD
T2 construct: full-length receptor; C-terminal Nluc (SMO-Nluc) for miniGsi recruitment; expressed in deltaSMO HEK293A cells

[3] = molecular target: T3, SMO (HiBiT-SMO; SMO-Nluc) (Mus musculus, UniProt P56726); experiment: NanoBiT/BRET saturation binding in live cells; conditions: HBSS, 90 min, 37 °C; cell-surface receptor; monophasic, lower 7TM site; labelled compound; error SD
T3 construct: full-length receptor; C-terminal Nluc (SMO-Nluc) for miniGsi recruitment; expressed in deltaSMO HEK293A cells

[4] = molecular target: T4, FZD6 (HiBiT-FZD6; FZD6-Nluc) (Homo sapiens, UniProt O60353, P427F); experiment: NanoBiT/BRET saturation binding in live cells; conditions: HBSS, 90 min, 37 °C; cell-surface receptor; upper 7TM site; labelled compound; error SD
T4 construct: full-length receptor; expressed in deltaSMO HEK293A cells; UniProt id given for the homology model
T4 sequence (O60353 19-706 P427F): T1 sequence (O60353 19-706) with P409F

[5] = molecular target: T1, FZD6 (HiBiT-FZD6; FZD6-Nluc); experiment: BRET Venus-mGsi recruitment to receptor-Nluc in deltaSMO HEK293A cells; conditions: agonist; bell-shaped concentration response; read 5 min after addition

T2 sequence (P56726 33-793 F466P): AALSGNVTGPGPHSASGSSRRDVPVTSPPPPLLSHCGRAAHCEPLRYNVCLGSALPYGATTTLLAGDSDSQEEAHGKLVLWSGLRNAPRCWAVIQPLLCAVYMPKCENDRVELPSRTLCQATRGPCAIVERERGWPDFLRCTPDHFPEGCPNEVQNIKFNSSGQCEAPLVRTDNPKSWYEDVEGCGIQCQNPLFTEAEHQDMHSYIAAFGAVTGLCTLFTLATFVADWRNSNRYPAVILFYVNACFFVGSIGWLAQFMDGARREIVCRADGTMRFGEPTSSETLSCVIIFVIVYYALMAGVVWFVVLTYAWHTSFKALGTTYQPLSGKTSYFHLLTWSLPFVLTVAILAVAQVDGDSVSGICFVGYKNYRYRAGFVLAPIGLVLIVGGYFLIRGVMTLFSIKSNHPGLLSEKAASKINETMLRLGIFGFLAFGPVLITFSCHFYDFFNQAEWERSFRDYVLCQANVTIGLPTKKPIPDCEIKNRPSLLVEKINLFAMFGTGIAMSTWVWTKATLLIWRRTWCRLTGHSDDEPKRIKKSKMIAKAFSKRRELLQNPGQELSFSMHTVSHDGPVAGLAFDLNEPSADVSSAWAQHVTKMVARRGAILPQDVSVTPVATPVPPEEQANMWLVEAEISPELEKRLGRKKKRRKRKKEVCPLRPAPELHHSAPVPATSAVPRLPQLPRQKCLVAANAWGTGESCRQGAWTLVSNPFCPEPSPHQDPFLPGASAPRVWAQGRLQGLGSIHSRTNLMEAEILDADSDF
T3 sequence (P56726 33-793): as the sequence (P56726 33-793 F466P) above, with P434F counted along it

| Compound | pKd [1] | pKd [2] | pKd [3] | pKd [4] | BRET Venus-mGsi recruitment to receptor-Nluc in deltaSMO HEK293A cells [5] |
| --- | --- | --- | --- | --- | --- |
| CC1=C2CC3C(CC=C4C[C@@H](O)CCC43C)C2CCC12O[C@@H]1CC(C)CN(CCNC(=O)CCCCCNC(=O)CCC3=[N+]4C(=Cc5c(C)cc(C)n5[B-]4(F)F)C=C3)C1C2C (some centres unmarked) [BODIPY-cyclopamine] | 6.45 ± 0.23 -log10 M | 5.44 ± 1.02 -log10 M | 6.87 ± 0.13 -log10 M | 6.28 ± 0.20 -log10 M | – |
| CN[C@H]1CC[C@H](N(Cc2cccc(-c3ccncc3)c2)C(=O)c2sc3ccccc3c2Cl)CC1 [SAG1.3] | – | – | – | – | SAG1.3-induced mGsi recruitment to SMO, while that to FZD6 remained unaffected |

From paper PMC8225760, “Residue 6.43 defines receptor function in class F GPCRs” (Nature Communications, 2021)
